For one experiment, the target named is T1, KAT5 (Homo sapiens, UniProt Q92993).
T1 construct: His-TEV tag (N, cleaved yes); made in house
Briefly: KAT5 enzyme inhibition assay (SAMDI mass spectrometry). It counts as biochemical. Conditions: His-TEV-FL KAT5-Flag enzyme construct.

Another experiment has as its target T2, KAT6A (Homo sapiens, UniProt Q92794).
T2 construct: His-TEV tag (N, cleaved yes); made in house
Briefly: KAT6A enzyme inhibition assay (SAMDI mass spectrometry). It is filed as biochemical. The note with it: His-TEV-KAT6A 501-784 enzyme construct.

A value given as a limit tells only on which side of the number the result lay.

T2 sequence (Q92794 with tags, fused parts or gaps): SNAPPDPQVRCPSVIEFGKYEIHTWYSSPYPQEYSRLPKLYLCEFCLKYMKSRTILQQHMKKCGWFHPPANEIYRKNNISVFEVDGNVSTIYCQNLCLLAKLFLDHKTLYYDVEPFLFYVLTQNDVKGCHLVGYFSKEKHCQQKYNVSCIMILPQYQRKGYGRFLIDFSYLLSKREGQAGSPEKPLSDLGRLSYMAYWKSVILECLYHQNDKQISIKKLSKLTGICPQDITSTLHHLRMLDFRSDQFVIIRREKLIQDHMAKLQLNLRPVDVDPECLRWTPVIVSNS
T1 sequence (Q92993 with tags, fused parts or gaps): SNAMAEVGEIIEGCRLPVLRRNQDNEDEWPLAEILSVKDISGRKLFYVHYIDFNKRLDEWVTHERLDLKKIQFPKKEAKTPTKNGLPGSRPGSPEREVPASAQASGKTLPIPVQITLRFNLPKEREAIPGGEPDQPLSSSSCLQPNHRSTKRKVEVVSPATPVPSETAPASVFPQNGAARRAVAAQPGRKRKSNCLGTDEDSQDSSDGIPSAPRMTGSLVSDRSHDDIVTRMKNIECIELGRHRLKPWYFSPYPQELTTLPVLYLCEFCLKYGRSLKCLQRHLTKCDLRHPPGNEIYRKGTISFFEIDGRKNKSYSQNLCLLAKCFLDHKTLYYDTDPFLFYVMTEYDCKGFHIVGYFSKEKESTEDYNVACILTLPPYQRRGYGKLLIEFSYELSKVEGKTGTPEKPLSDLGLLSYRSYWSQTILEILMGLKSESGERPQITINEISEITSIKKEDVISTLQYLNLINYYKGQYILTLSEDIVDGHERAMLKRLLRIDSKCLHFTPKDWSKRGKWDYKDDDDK

Regarding `Cc1ccc(-c2csc(NS(=O)(=O)c3cccc(C(=O)O)c3)n2)cc1C` [Compound I-520], the IC50 at KAT5 and against KAT6A was greater than 100 µM throughout.

As for `Cc1cc(-c2ccccc2)cc(C(=O)NNS(=O)(=O)CC2CNCCO2)c1F` (centres unmarked) [Compound I-426], the results for the IC50 against KAT5 and on KAT6A were 10 to 50 µM and no more than 10 µM, respectively.

Turning to `Cc1c(-c2ccccc2)ccc(F)c1C(=O)NNS(=O)(=O)C1CCC1` [Compound I-243], the IC50 on KAT5 and on KAT6A was greater than 100 µM throughout.

Take `COCCN1CCCC(S(=O)(=O)NNC(=O)c2cc(-c3ccccc3)cc(C)c2F)C1` (centres unmarked) [Compound I-101]: the IC50 at KAT5 and against KAT6A was 10 to 50 µM each time.

On to `O=C(NNS(=O)(=O)C1CCCCC1)c1cc(-c2ccc(O)cc2)cc(Cl)c1F` [Compound I-460], for which the IC50 is no more than 10 µM against KAT5 and 10 to 50 µM against KAT6A.

`CC(=O)N1CCCC(CS(=O)(=O)NNC(=O)c2cc(-c3cccc(C)c3)cc(Cl)c2F)C1` (centres unmarked) [Compound I-515]: the results for the IC50 against KAT5 and against KAT6A were no more than 10 µM and greater than 100 µM, respectively.

Regarding `C=CCn1nc(NNS(=O)(=O)c2ccccc2)c2ccccc21` [Compound I-290], the IC50 on KAT5 and against KAT6A was greater than 100 µM throughout.

On to `Cc1cc(-c2cccc(F)c2)cc(C(=O)NNS(=O)(=O)CC2CCN(C(=O)OC(C)(C)C)CC2)c1F` [Compound I-359], for which the IC50 on KAT5 and against KAT6A was no more than 10 µM in each case.

For the compound `CCc1cc(-c2ccccc2)cc(C(=O)NNS(=O)(=O)c2ccccc2)c1F` [Compound I-216], the IC50 against KAT5 and against KAT6A was no more than 10 µM throughout.

On to `Cc1cc(-c2ccccc2)cc(C(=O)NNS(=O)(=O)C2CCN(Cc3cccc(Cl)c3)C2)c1F` (centres unmarked) [Compound I-30], for which the half-maximal inhibitory concentration (IC50) at KAT5 and against KAT6A was 10 to 50 µM throughout.

Turning to `Nc1ccc(-c2cc(Cl)c(F)c(C(=O)NNS(=O)(=O)C3CCCCC3)c2)cc1` [Compound I-463], the IC50 against KAT5 is no more than 10 µM; against KAT6A, greater than 100 µM.

In the case of `Cc1cccc(C(=O)NNS(=O)(=O)c2ccccc2)c1F` [Compound I-183], the IC50 at KAT5 was 10 to 50 µM; at KAT6A it was no more than 10 µM.

For the compound `O=C(NNS(=O)(=O)c1cccc(Cl)c1)c1c(F)ccc(-c2ncc[nH]2)c1F` [Compound I-170], the half-inhibitory concentration (IC50) against KAT5 was greater than 100 µM; against KAT6A, 50 to 100 µM.

For `CC(C)(C)OC(=O)N1CCCC(CS(=O)(=O)NNC(=O)c2cc(-c3cccc(F)c3)cc(Cl)c2F)C1` (centres unmarked) [Compound I-396], the IC50 at KAT5 and on KAT6A was no more than 10 µM in each case.

`Cc1cc(-c2cccc(F)c2)cc(C(=O)NNS(=O)(=O)CC2CN(C(=O)OC(C)(C)C)CCO2)c1F` (centres unmarked) [Compound I-425]: the 50% inhibitory concentration (IC50) on KAT5 and against KAT6A was no more than 10 µM each time.

For `COCCN1CCC(CS(=O)(=O)NNC(=O)c2cc(-c3ccccc3)cc(C)c2F)CC1` [Compound I-507], the IC50 against KAT5 and against KAT6A was no more than 10 µM in each case.

In the case of `CCc1cc(F)cc(-c2cc(Cl)c(F)c(C(=O)NNS(=O)(=O)C3CCCCC3)c2)c1` [Compound I-498], the IC50 against KAT5 and at KAT6A was 10 to 50 µM in each case.

Regarding `Cc1cc(-c2cc(F)cc(F)c2)cc(C(=O)NNS(=O)(=O)CC2CCCCC2)c1F` [Compound I-355], the half-maximal inhibitory concentration (IC50) at KAT5 and against KAT6A was 10 to 50 µM in each case.

With `O=C(NNS(=O)(=O)C1CCOCC1)c1cc(-c2ccc(O)cc2)cc(Cl)c1F` [Compound I-459], the IC50 at KAT5 is greater than 100 µM; at KAT6A, no more than 10 µM.

For the compound `COc1ccccc1-c1cc(C)c(F)c(C(=O)NNS(=O)(=O)C2CCCCC2)c1` [Compound I-302], the IC50 at KAT5 and on KAT6A was 50 to 100 µM in each case.

As to `Cc1cc(-c2ccccc2)cc(C(=O)NS(=O)(=O)N2CCCC2)c1F` [Compound I-151], the IC50 on KAT5 and at KAT6A was greater than 100 µM in each case.

`Cc1cc(-c2cccc(F)c2)cc(C(=O)NNS(=O)(=O)CC2CCCN(C(=O)CCN(C)C(=O)OC(C)(C)C)C2)c1F` (centres unmarked) [Compound I-331]: the IC50 against KAT5 and against KAT6A was no more than 10 µM in each case.

For the compound `CCC(=O)N1CCCC(CS(=O)(=O)NNC(=O)c2cc(-c3cccc(F)c3)cc(C)c2F)C1` (centres unmarked) [Compound I-372], the IC50 at KAT5 and on KAT6A was no more than 10 µM throughout.

Take `COCCOc1cccc(-c2cc(C)c(F)c(C(=O)NNS(=O)(=O)CC3CCCCC3)c2)c1` [Compound I-270]: the figures for the IC50 against KAT5 and against KAT6A were no more than 10 µM and 10 to 50 µM, respectively.

`COCCN1CCCC(C(C)S(=O)(=O)NNC(=O)c2cc(-c3ccccc3)cc(C)c2F)C1` (centres unmarked) [Compound I-334]: the IC50 against KAT5 and against KAT6A was 10 to 50 µM throughout.

`Cc1cc(-c2cc(F)cc(F)c2)cc(C(=O)NNS(=O)(=O)c2ccccc2)c1F` [Compound I-353]: the IC50 at KAT5 and against KAT6A was no more than 10 µM in each case.

In the case of `Cc1cccc(-c2cccc(C(=O)NNS(=O)(=O)c3ccccc3)c2F)c1` [Compound I-229], the IC50 against KAT5 and against KAT6A was 10 to 50 µM in each case.

As to `Cc1cc(-c2ccccc2)cc(C(=O)NNS(=O)(=O)c2ccccn2)c1F` [Compound I-209], the IC50 at KAT5 and on KAT6A was no more than 10 µM in each case.

Turning to `COc1ccccc1C(=O)NNS(=O)(=O)c1ccccc1` [Compound I-145], the IC50 against KAT5 and against KAT6A was greater than 100 µM each time.

Take `Cc1c(-c2ccccc2)ccc(F)c1C(=O)NNS(=O)(=O)C1CCCCC1` [Compound I-117]: the concentration for half-maximal inhibition (IC50) was greater than 100 µM on KAT5 and 50 to 100 µM against KAT6A.

In the case of `O=C(NNS(=O)(=O)C1CCCCC1)c1cc(-c2ccccc2F)cc(Cl)c1F` [Compound I-390], the IC50 against KAT5 and on KAT6A was no more than 10 µM throughout.

For the compound `O=C(NNS(=O)(=O)C1CCCCC1)c1cc(-c2cccc(CO)c2)cc(Cl)c1F` [Compound I-485], the values for the 50% inhibitory concentration (IC50) on KAT5 and on KAT6A were no more than 10 µM and 10 to 50 µM, respectively.

In the case of `CC(C)(C)OC(=O)N1CCCC(CS(=O)(=O)NNC(=O)c2cc(-c3ccccc3)cc(Cl)c2F)C1` (centres unmarked) [Compound I-401], the half-maximal inhibitory concentration (IC50) at KAT5 and against KAT6A was no more than 10 µM throughout.

Turning to `Cc1cc(C(=O)NNS(=O)(=O)c2ccccc2)c(F)c(-c2ccccc2)c1` [Compound I-142], the IC50 against KAT5 was 10 to 50 µM; against KAT6A it was no more than 10 µM.

Values taken from patent US20220267260A1, “COMPOUNDS CONTAINING A SULFONIC GROUP AS KAT INHIBITORS” (Epizyme, Inc., priority 2016, published 2022).
